Source: patent US10828436B2, “Administering the noble gas argon during cardiopulmonary resuscitation” (Vanderbilt University, priority 2016, dated 2020)

Experiments:
rat isolated hearts = assay: Rat isolated hearts, 30 min global no-flow ischemia and 120 min reperfusion; conditions: for defibrillation by lidocaine administration required to convert back to sinus rhythm: vs control hearts, P<0.05
Source text: (§1) In one example, in-vivo experiments included a systematic study of the effect of Argon administered during CPR in a pig model of cardiac arrest on cardiac and neurological function, histological and other molecular effects after ROSC including 24- or 48 hr survival studies. […] Other examples include cell culture (in vitro) and isolated heart (ex vivo) experiments. The in vitro experiments include a systematic study of the effect of Argon administered on reoxygenation after prolonged hypoxia on markers of cellular injury and cell death in cardiomycytes and neuronal cell cultures. The ex vivo experiments include a systematic study of the effect of Argon administered on reperfusion after global coronary ischemia on coronary and myocardial function and infarct size in rat isolated hearts.

human cardiomyocytes = assay: Hypoxia/reoxygenation in isolated cells, LDH injury marker; format: cell-based; conditions: Argon for 10 min or 30 min upon reoxygenation after hypoxia, vs control HR with nitrogen
Description: (§2) These experiments show no evidence that Argon, given for 10 min or 30 min upon reoxygenation (R) after hypoxia (H), directly improves the cellular injury marker lactate dehydrogenase (LDH) compared to control HR with nitrogen.
as §1

rat isolated lungs = assay: Rat isolated lungs, pulmonary vascular resistance under different gas mixtures
Description: Rat isolated lungs ventilated with either 65% N2 or 65% Argon plus 30% O2 and 5% CO2 and perfused at a rate of 40 mL/kg body weight with physiological salt solution plus 4% albumin via cannulas placed into the pulmonary artery (PA) and left atrium. PA pressure is recorded throughout the experiment and analyzed to determine the effect of different gas mixtures on the pulmonary vascular resistance. Argon led to a reversible 28% drop in pulmonary perfusion pressure at constant flow compared to ventilation with Nitrogen before and after. P<0.05*vs Nitrogen, † vs Argon.

[1] = test system: coronary artery endothelial cells; assay: Hypoxia/reoxygenation in isolated cells, LDH injury marker; format: cell-based, human; conditions: Argon for 10 min or 30 min upon reoxygenation after hypoxia, vs control HR with nitrogen
Description: as §2

[2] = test system: pig model of cardiac arrest; assay: Pig model of cardiac arrest and CPR with Argon/O2 given during CPR before ROSC; format: in vivo
Description: Argon treatment led to higher systemic pulse pressures (arterial pressure during compression minus pressure during decompression), a lower number of defibrillation attempts and epinephrine requirements to achieve ROSC, a higher ROSC rate, lower lactic acidosis upon ROSC and lower cardiac injury markers (CK-MB and Troponin I) 6 hours after ROSC.
as §1, with “hearts. […]” for “hearts.”

[3] = 65% Argon for 10 or 120 min of reperfusion vs 65% Nitrogen
[4] = gas mixture given during CPR, pigs

In the case of `[Ar]` [Argon, argon], the “coronary or myocardial function (diastolic and developed left ventricular pressure, coronary flow)” value (rat isolated hearts; [3]) is reported as “no evidence of improved”, the infarct size (rat isolated hearts; [3]) is reported as “no evidence of improved” and the “defibrillation by lidocaine administration required to convert back to sinus rhythm” value (rat isolated hearts) is reported as “significantly less”. For the same molecule, the “defibrillation by lidocaine administration required to convert back to sinus rhythm” value (rat isolated hearts; listed as 70% Argon) was “less”, the “improvement of cellular injury marker lactate dehydrogenase (LDH)” value (human cardiomyocytes) was “no evidence” and the “drop in pulmonary perfusion pressure at constant flow” value (rat isolated lungs; 65% Argon plus 30% O2 and 5% CO2, reversible, vs ventilation with Nitrogen before and after) was 28%. The “pulmonary artery pressure at constant flow” value (rat isolated lungs; isolated lungs, in words) was “lower”, the “improvement of cellular injury marker lactate dehydrogenase (LDH)” value [1] was “no evidence” and the outcome parameters ([2]; CPR with 70% Argon, compared to control animals without Argon during CPR, in words) was “much improved”. The “systemic pulse pressures (arterial pressure during compression minus pressure during decompression)” value ([2]; during CPR, vs Nitrogen/O2, in words) was “higher”, the “Arterial pH upon ROSC” value [2, 4] was 7.27 ± 0.05 and the “CK-MB 6 hrs after ROSC” value [2, 4] was 15.2 ± 4.3 ng/mL. For the same molecule, the “Epinephrine dose to achieve ROSC” value [2, 4] was 0.7 ± 0.2 mg, the “Lactate upon ROSC” value [2, 4] was 6.8 ± 0.7 mEq and the “Number of defibrillations to achieve ROSC” value [2, 4] was 2.4 ± 1.0 n. The “Pulse pressure at 3 min CPR” value [2, 4] was 62.3 ± 3.7 mmHg, the ROSC [2, 4] was 100% and the “Troponin I 6 hrs after ROSC” value [2, 4] was 6.8 ± 4.7 ng/mL. For the same molecule, the ROSC rate ([2]; vs Nitrogen/O2, in words) was “higher”, the “cardiac injury markers (CK-MB and Troponin I) 6 hours after ROSC” value ([2]; vs Nitrogen/O2, in words) was “lower” and the “epinephrine requirements to achieve ROSC” value ([2]; vs Nitrogen/O2, in words) was “lower”. For the same molecule, the “lactic acidosis upon ROSC” value ([2]; vs Nitrogen/O2, in words) was “lower”, the “number of defibrillation attempts to achieve ROSC” value ([2]; vs Nitrogen/O2, in words) was “lower” and the “number of defibrillation attempts to achieve ROSC” value ([2]; vs Nitrogen/O2, in words, listed as 70% Argon) was “less”.
